Reference: patent EP0437336B1, “Biophosphoryl hydrazines and their use as pesticides” (priority 1990, dated 1991)
Converted amounts (≈) assume the structure as drawn. Read-outs that look alike come from different tables or passages of the source.

Assays:
Southern Armyworm = experiment: Biological Method D: Foliar Insecticidal Activity Test, Southern Armyworm test; format: in vivo, Spodoptera eridania; conditions: foliar spray; for AW 48 hrs LC50: 48 hours after treatment; for AW 96 hrs LC50: 96 hours after treatment; as to all read-outs here: key: I = Inactive at Rate Tested
Description: (§1) Biological Method D: Foliar Insecticidal Activity Test
(§2) In evaluating the foliar insecticidal activity of the compounds of this invention against insects and mites, the following test procedures were employed.
(§3) Not all compounds were tested at each of the several concentrations stated above. Test concentrations of a compound were selected as those most likely to differentiate dose response of a particular compound toward a particular test insect.
(§4) Initial evaluations were made on one or more of the following pests:
(§5) For the Mexican Bean Beetle and Southern armyworm tests, individual lima bean (Phaseolus limeniss var. Woods' Prolific) leaves were placed on moistened pieces of filter paper in Petri dishes. The leaves were then sprayed with the test solution using a rotating turntable and allowed to dry. The dishes were then infested with 10 third instar larvae of either the Mexican Been Beetle or the Southern Armyworm. The dishes were then covered. Percent mortality was determined for each species and spray concentration at 48 and 96 hours after treatment.
(§6) The mortalities obtained in this manner were plotted on logarithmic probability paper.
(§7) The rotating turntable consists of a fixed, continuously operating spray nozzle under which targets are rotated at a fixed speed and distance. If the target is a Petri dish (such as for the bean beetle, armyworm, mite, or aphid tests), the distance from the nozzle is 38.1 cm (15 inches). If the target is a Mason jar (such as for the boll weevil test), the distance from the nozzle is 17.8 cm (7 inches). The nozzle is located 8 inches from the rotating shaft. The targets on individual platforms revolve around the shaft at 1 revolution per 20 seconds but only a brief portion of this time occurs in the spray path. Targets pass only once under the nozzle and then are removed to drying hoods.
(§8) The nozzle used is a 1/4 JCO Spraying Systems (Wheaton, Illinois) air atomizing nozzle equipped with a No. 2850 fluid cap and a No. 70 air cap. At the 68.95 x 10³ Pa gauge (10 psig) air pressure used and with liquid siphon feed, 1.89 ℓ/hr [0.5 GPH (gallons per hour)] are delivered in a round spray pattern with a 21 degree spray angle. Targets are misted with spray droplets to the point that the droplets coalesce to form a uniform thin film insufficient to drown test organisms.

Boll Weevil = experiment: Biological Method D: Foliar Insecticidal Activity Test, boll weevil test; format: in vivo, Anthonomous grandis; conditions: spray into jar
Description: as §1, §2, §3, §4
For the boll weevil test, 10 adult weevils were placed in a 0.24 ℓ (0.5 pint) glass Mason jar containing a small cube of apple. The weevils were confined to the jar by fiberglass screen mesh secured by a screw-type rim cap. The jars were then sprayed with the test solution using a rotating turntable; directing the spray through the mesh into the jar. The percentage killed was determined after forty-eight and ninety six hours.
as §6, §7, §8

Two-Spotted Spider Mite = experiment: Biological Method D: Foliar Insecticidal Activity Test, mite test; format: in vivo, Tetranychus urticae; conditions: foliar spray, kill after twenty-four hours; for LC50: Tetranychus urticae, 24 h, read-out: TSM LC50; as to all read-outs here: key: I = Inactive at Rate Tested
Description: as §1, §2, §3, §4
For the mite test, infested bean (Phaseolus limensis var. Woods Prolific) leaf discs [3.18 cm (1.25") in diameter] containing about 50 mites were placed in a Petri dish lid on a moistened piece of cotton. The leaves were then sprayed to thorough wetness with the test solution using a rotating turntable, held for twenty-four hours and then the percentage killed was determined.
as §6, §7, §8

[1] = tested on: southern corn rootworm, Diabrotica undecimpunctata howardi; experiment: Biological Method A: Corn Rootworm Screening Test (treated non-aggressive soil); conditions: soil concentration giving 90% mortality, 10 days at 27°C
Green Peach Aphid = experiment: Biological Method D: Foliar Insecticidal Activity Test, aphid test; format: in vivo, Myzus persicae; conditions: foliar spray; kill after twenty-four hours; also: key: I = Inactive at Rate Tested
Description: as §1, §2, §3, §4
For the aphid test, infested broccoli (Brassica oleracea italica var. DiCicco) leaves containing about 50 aphids were placed in a Petri dish lid on a moistened piece of cotton. The leaves were then sprayed to thorough wetness with the test solution using a rotating turntable, held for twenty-four hours and then the percentage killed was determined.
as §6, §7, §8

Mexican Bean Beetle = experiment: Biological Method D: Foliar Insecticidal Activity Test, Mexican Bean Beetle test; format: in vivo, Epilachna varivestis; conditions: Epilachna varivestis, foliar spray
Description: as §1, §2, §3, §4, §5, §6, §7, §8

[2] = 48 hours after treatment, read-out: BB 48 hrs. LC50
[3] = 96 hours after treatment, read-out: BB 96 hrs LC50

SMILES	AW 48 hrs LC50 (Southern Armyworm)	AW 96 hrs LC50 (Southern Armyworm)	BW 48 hrs LC50 (Boll Weevil)	BW 96 hrs LC50 (Boll Weevil)	TSM LC50 (Two-Spotted Spider Mite)	primary nonagressive Method A crw LC90 [1] [ppm]	GPA LC50 (Green Peach Aphid)	LC50 (Mexican Bean Beetle; [2]) [µg/mL]	LC50 (Mexican Bean Beetle; [3]) [µg/mL]	LC50 (Two-Spotted Spider Mite) [µg/mL]
CCCOP(=S)(NNP(=S)(OCC)N1CCCCC1)OCCC (stereo not shown) [Compound 64]	I	I	I	I	I	8.6	I	740 (≈ 1830 µM)	740 (≈ 1830 µM)	
CCOP(=S)(NNP(=S)(OCC)OC(C)C)OC(C)C (stereo not shown) [Compound 67, reference compound]	I	I	I	I		0.09	I	150 (≈ 412 µM)	62 (≈ 170 µM)	150 (≈ 412 µM)
CCOP(=S)(NNP(=S)(OCC(C)(C)C)OC(C)C)OCC (stereo not shown) [Compound 68]	I	I	I	I		1.1	I	500 (≈ 1270 µM)	150 (≈ 382 µM)	520 (≈ 1320 µM)
CCCOP(=S)(NNP(=S)(OCC)OC(C)(C)C(F)(F)F)OCC (stereo not shown) [Compound 69]	I	I	I	I		1.1	I	500 (≈ 1160 µM)	62 (≈ 143 µM)	360 (≈ 833 µM)
CCCOP(=S)(NNP(=S)(OCC)OC(C)(C(F)(F)F)C(F)(F)F)OCC (stereo not shown) [Compound 70]	I	I	I	I	I	1.1	I	500 (≈ 1030 µM)	45 (≈ 92.5 µM)	
CCOP(=S)(NCC(C)C)NNP(=S)(OCC)OCC (stereo not shown) [Compound 71]	I	I	I	I	I	1.1	I	150 (≈ 413 µM)	150 (≈ 413 µM)	
CCCCCCCCOP(=S)(NNP(=S)(OCC)OCC)OCC (stereo not shown) [Compound 72]	I	I	I	I	I	1.1	I			
CCCCCCOP(=S)(NNP(=S)(OCCC)OCCC)OCC (stereo not shown) [Compound 80]	I	I	I	I	I	1.1	I			
CCOP(=S)(NNP(=S)(OC(C)C)OC(C)C)OCC(C)C (stereo not shown) [Compound 83]	I				I		I	500 (≈ 1270 µM)	62 (≈ 158 µM)	
